Experiments:
boar spermatozoa [1] = test: Sperm viability in vitro (motility, acrosome morphology), Example I; type: cell-based, pig
Description: Aliquots of 80 μl of the PMN suspension (see, PMN isolation and preparation of PMNs) in TM or TM-s, with either intact or inactivated complement, were transferred to a 96-well polystyrene microtest plate. To each well, 20 μl of sperm suspension (see, preparation of semen samples) was added and the microtest plate was placed in a humidified incubator at 38° C. with 5% CO2 in air. […] The samples were incubated with gentle swirling on a test plate shaker. After 15, 30, 45, 60 or 90 min., samples were quantitatively transferred into tubes containing an equal volume of 40 mg ml^−1 heparin (Sigma) in PBS. The heparin facilitates dissociation of agglutinated PMNs. The samples were thoroughly mixed, left for 15 min., and mixed again. Subsamples of 75 μl were fixed by addition of 25 μl of 2% (v/v) glutaraldehyde (Fluka, Brunschwig chemie, Amsterdam, The Netherlands) in PBS. “Blank” samples, i.e., sperm without PMNs (80 μl TM-s mixed with 20 μl sperm suspension), were incubated in parallel to monitor sperm survival during the treatment. “Reference” samples, i.e., frozen-thawed (killed) semen, were incubated in parallel with the PMNs as a reference for the phagocytotic activity of the PMNs. The frozen-thawed semen was taken from a large stock of semen from one ejaculate and washed 3 times in PBS prior to use.
For evaluation of phagocytosis, wet mounts of the fixed samples were examined with a combination of phase-contrast and fluorescence microscopy (Olympus BH2, Tokyo, Japan) at 400× magnification. The mounts enabled observation and counting of fluorescently labeled spermatozoa inside and outside the phagocytes. By focusing at different levels in the mount, spermatozoa that were located above or below the PMN could be distinguished from those that were phagocytosed. […] Two hundred spermatozoa were evaluated and classified as inside or outside the PMN (i.e., phagocytosed or not phagocytosed). The same fixed mounts were used to assess the acrosome morphology of the non-phagocytosed spermatozoa at the moment of fixation. One hundred cells were classified using phase-contrast microscopy at 400× magnification, as NAR (normal apical ridge), NAR' (slightly altered normal apical ridge), DAR (damaged apical ridge), MAR (missing apical ridge) and LAC (loose acrosomal cap), as described by Pursel et al. (Pursel V G, Schulman L L and Johnson L A, 1978, Distribution and morphology of fresh and frozen-thawed sperm in the reproductive tract of gilts after insemination Biology of Reproduction 19 69-76.)

boar spermatozoa [2] = test: as above; type: cell-based, pig; remark: listed apart in the source
sows = test: Example III Series 2: embryos and accessory sperm after insemination of sows; type: in vivo, pig
Description: Series 2: Batches of sows (parity 2-13) received hCG at 84 hours after weaning. The sows were inseminated at 16 hours after hCG administration (on average 26 hours, ranging from 21-28 hours, before ovulation as observed by transrectal ultrasonography) or inseminated at 4 hours after ovulation. […] The sows were slaughtered at 115 (112-120) hours after ovulation. The embryos were flushed, examined morphologically, and the number of accessory sperm were counted.

[3] = Exp. 1, after adding active compound and pre-incubation 30 min. at 38° C.
[4] = Exp. 1, blank samples without PMN, phagocytosis time 60 min.
[5] = Exp. 1, blank samples without PMN, preincubated 30 min. at 38° C., phagocytosis time 30 min.
[6] = Exp. 2, 0.2 mM, after adding active compound, without pre-incubation
[7] = Exp. 2, 0.2 mM, blank samples without PMN, without pre-incubation, phagocytosis time 30 min.
[8] = Exp. 2, 0.5 mM, after adding active compound, after pre-incubation
[9] = Exp. 2, 0.5 mM, after adding active compound, without pre-incubation
[10] = Exp. 2, 0.5 mM, blank samples without PMN, after pre-incubation
[11] = Exp. 2, 0.5 mM, blank samples without PMN, without pre-incubation, phagocytosis time 30 min.
[12] = Exp. 2, 1 mM, after adding active compound, after pre-incubation
[13] = Exp. 2, 1 mM, after adding active compound, without pre-incubation
[14] = Exp. 2, 1 mM, blank samples without PMN, after pre-incubation
[15] = Exp. 2, 1 mM, blank samples without PMN, without pre-incubation, phagocytosis time 30 min.
[16] = Exp. 2, 2 mM, after adding active compound, after pre-incubation
[17] = Exp. 2, 2 mM, after adding active compound, without pre-incubation
[18] = Exp. 2, 2 mM, blank samples without PMN, after pre-incubation
[19] = Exp. 2, 2 mM, blank samples without PMN, without pre-incubation, phagocytosis time 30 min.
[20] = Exp. 3, 1 mM, after pre-incubation of sperm 30 min. at 38° C.
[21] = Exp. 3, 1 caffeine, blank samples without PMN, after pre-incubation at 38° C., phagocytosis time 30 min.

## Cn1c(=O)c2c(ncn2C)n(C)c1=O [caffeine, 1,3,7-Trimethylxanthine]
Boar spermatozoa [1]; [3]
  % DAR: 30%
  % LAC: 15%
  % MAR: 02%
  % NAR: 53%
Boar spermatozoa [1]; [4]
  % LAC: 22%
  % MAR (second value of NAR-MAR-MAR-LAC): 36%
  % MAR (third value of NAR-MAR-MAR-LAC): 05%
  % NAR: 37%
Boar spermatozoa [1]; [5]
  % LAC: 21%
  % MAR (second value of NAR-MAR-MAR-LAC): 39%
  % MAR (third value of NAR-MAR-MAR-LAC): 03%
  % NAR: 37%
Boar spermatozoa [1]; [6]
  % DAR: 12%
  % LAC: 03%
  % MAR: 01%
  % motile sperm: 80%
Boar spermatozoa [1]; [7]
  % DAR: 12%
  % LAC: 03%
  % MAR: 00%
  % NAR: 85%
Boar spermatozoa [1]; [8]
  % DAR: 14%
  % LAC: 02%
  % MAR: 01%
  % NAR: 83%
  % motile sperm: 80%
Boar spermatozoa [1]; [9]
  % DAR: 12%
  % LAC: 02%
  % MAR: 02%
  % NAR: 84%
  % motile sperm: 80%
Boar spermatozoa [1]; [10]
  % DAR: 12%
  % LAC: 02%
  % MAR: 01%
  % NAR: 85%
Boar spermatozoa [1]; [11]
  % DAR: 10%
  % LAC: 03%
  % MAR: 00%
  % NAR: 87%
Boar spermatozoa [1]; [12]
  % DAR: 16%
  % LAC: 06%
  % MAR: 01%
  % NAR: 77%
  % motile sperm: 80%
Boar spermatozoa [1]; [13]
  % DAR: 09%
  % LAC: 03%
  % MAR: 01%
  % NAR: 87%
  % motile sperm: 80%
Boar spermatozoa [1]; [14]
  % DAR: 21%
  % LAC: 06%
  % MAR: 01%
  % NAR: 72%
Boar spermatozoa [1]; [15]
  % DAR: 10%
  % LAC: 05%
  % MAR: 00%
  % NAR: 85%
Boar spermatozoa [1]; [16]
  % DAR: 20%
  % LAC: 05%
  % MAR: 02%
  % NAR: 73%
  % motile sperm: 80%
Boar spermatozoa [1]; [17]
  % DAR: 13%
  % LAC: 04%
  % MAR: 01%
  % NAR: 82%
  % motile sperm: 80%
Boar spermatozoa [1]; [18]
  % DAR: 24%
  % LAC: 05%
  % MAR: 01%
  % NAR: 70%
Boar spermatozoa [1]; [19]
  % DAR: 12%
  % LAC: 08%
  % MAR: 01%
  % NAR: 79%
Boar spermatozoa [1]; [20]
  % DAR: 24%
  % LAC: 08%
  % MAR: 01%
  % NAR: 67%
Boar spermatozoa [1]; [21]
  % DAR: 24%
  % LAC: 08%
  % MAR: 02%
  % NAR: 66%
Boar spermatozoa [2]; [3]
  % motile sperm: 60%
Boar spermatozoa [2]; [6]
  % NAR: 84%
Boar spermatozoa [2]; [20]
  % motile sperm: 65%
sows
  % fertilized oocytes, in words: tended to be higher

— US6890708B2, “Method for improving the quality of sperm for artificial insemination of animals” (priority 2000, dated 2005)
